Test results taken from patent US20010034039A1, “Bioluminescent organism for detecting toxic substances” (priority 2000, published 2001).
In brackets after ≈: the same amount, converted by molar mass. Read-outs that look alike come from different tables or passages of the source.

Tests used:
[1] = tested on: YH9-RC deposited under KCTC 0730BP; experiment: microbe, parasite or virus in culture; type: cell-based; settings: Janthinobacterium lividum, read-out: EC50 (decrease luminescence by 50%)
Description: Toxicity tests for a variety of substances described in the following Table 2 were conducted using YH9-RC deposited under KCTC 0730BP obtained in the Example 1 to calculate EC50 (Effective concentration 50: the effective concentration of tested organism that decrease luminescence by 50%). It was compared with the EC50 value using oceanic luminescent bacterium (Vibrio sp. Isolate) that was most commonly used in a conventional toxicity test. First, the YH9-RC colony was cultured in an R2A broth containing 5 μg/ml of tetracycline (liquid culture medium containing Bacto yeast extract 0.5 wt %, Bacto proteose peptone No. 3 0.5 wt %, Bacto casamino acids 0.5 wt %, Bacto dextrose 0.5 wt %, soluble starch 0.5 wt %, sodium pyruvate 0.5 wt %, potassium phosphate dibasic 0.5 wt %, and magnesium sulfate 0.5 wt %) for 18 hours or more, and then it was sub-cultured in an R2A broth for another 7 to 8 hours, and the aliquot of the fresh culture was used in the toxicity test. In addition, 80 μl of the cell culture liquid, 80 μl of 0.03 wt % aldehyde aqueous solution, and 40 μl of a toxic sample diluted to various concentrations were mixed in a test tube of a luminometer, […]

[2] = tested on: oceanic luminescent bacterium (Vibrio sp. Isolate); experiment: microbe, parasite or virus in culture; type: cell-based; settings: read-out: EC50 (decrease luminescence by 50%)
YH-9 = settings: YH9 strain
Text: Then, the YH9 was transformed, and luminescent genes were introduced therein.

With `c1ccccc1` [Benzene] the EC50 ([1]; 5 min) was 75.2 µg/mL (≈ 962 µM), the EC50 ([1]; 10 min) was 50.9 µg/mL (≈ 652 µM) and the EC50 ([1]; 0.25 h) was 35.1 µg/mL (≈ 449 µM). It also gave an EC50 ([2]; 5 min) of 478 µg/mL (≈ 6120 µM), an EC50 ([2]; 10 min) of 607 µg/mL (≈ 7770 µM) and an EC50 ([2]; 0.25 h) of 747 µg/mL (≈ 9570 µM).
Compound `Oc1ccccc1` [Phenol] has an EC50 ([1]; 5 min) of 26.5 µg/mL (≈ 282 µM), an EC50 ([1]; 10 min) of 12 µg/mL (≈ 128 µM) and an EC50 ([1]; 0.25 h) of 12.7 µg/mL (≈ 135 µM). For the same compound, the EC50 ([2]; 5 min) was 116 µg/mL (≈ 1230 µM), the EC50 ([2]; 10 min) was 105 µg/mL (≈ 1120 µM) and the EC50 ([2]; 0.25 h) was 63.1 µg/mL (≈ 670 µM). The “MIC for phenol among various Gram-negative isolates” value (YH-9) was “lowest MIC”.
In the case of `Cc1ccccc1` [Toluene], the EC50 ([1]; 5 min, YH9-RC, 5 minutes) was 5.61 µg/mL (≈ 60.9 µM), the EC50 ([1]; 10 min, YH9-RC, 10 minutes) was 5.65 µg/mL (≈ 61.3 µM) and the EC50 ([1]; 0.25 h, YH9-RC, 15 minutes) was 6.3 µg/mL (≈ 68.4 µM). The EC50 ([2]; 5 min) was 87.1 µg/mL (≈ 945 µM), the EC50 ([2]; 10 min) was 120 µg/mL (≈ 1300 µM) and the EC50 ([2]; 0.25 h, 15 minutes) was 142 µg/mL (≈ 1540 µM).
For `Cc1ccc(C)cc1` [p-xylene], the EC50 ([1]; 5 min, YH9-RC, 5 minutes) was 45.3 µg/mL (≈ 427 µM), the EC50 ([1]; 10 min, YH9-RC, 10 minutes) was 37.7 µg/mL (≈ 355 µM) and the EC50 ([1]; 0.25 h, YH9-RC, 15 minutes) was 49.8 µg/mL (≈ 469 µM). The EC50 ([2]; 5 min) was 27.4 µg/mL (≈ 258 µM), the EC50 ([2]; 10 min) was 105 µg/mL (≈ 990 µM) and the EC50 ([2]; 0.25 h, 15 minutes) was 63.1 µg/mL (≈ 594 µM).
